# Laboratory results from patent US20100311965A1, “2-AMINOQUINAZOLINE DERIVATIVE” (CARNA BIOSCIENCES INC., priority 2007, published 2010).
# Tests used:
# [1] = test system: Rat basophilic cells RBL-2H3; assay: Action against IgE-induced degranulation (β-hexosaminidase release); assay type: cell-based; conditions: RBL-2H3 cells, anti-DNP-IgE / DNP-BSA, read-out: inhibitory activity against IgE-induced degranulation
# Experimental: An inhibitory action against SYK was evaluated by an inhibitory action against degranulation of basophils induced by IgE. Rat basophilic cells RBL-2H3 were incubated with an anti-DNP-IgE antibody (1 μg/mL, Zymed) overnight. After washing cells twice with HBSS, an antigen DNP-BSA (1 μg/mL, LSL) was added, followed by incubation for 30 minutes. The supernatant was taken and an activity of β-hexosaminidase in the solution isolated by degranulation was measured using p-nitrophenyl-N-β-D-glucosaminide as a substrate. Using an absorbance meter (Spectra MAX Pro, Molecular Devices), each absorbance at 405 nm and 570 nm of the solution was measured and an increase in the amount was taken as an enzyme activity. 10 minutes before the addition of an antigen, a test material and a solvent (0.1% DMSO) were added to cells. Inhibition rate (%) against degranulation was calculated by the following equation.
# Inhibition rate (%)=(1−(A−C)/(B−C))×100
# where A denotes an increase in absorbance of a test material group, B denotes an increase in absorbance of a solvent group, and C denotes an increase in absorbance of a solvent group which is not stimulated by an antigen.
# Syk kinase = target: T1, Syk kinase (Homo sapiens, UniProt P43405); assay: Kinase activity, mobility shift assay (MSA), Syk; assay type: biochemical; conditions: read-out: inhibitory activity against Syk kinase
# T1 construct: purchased Carna Biosciences Inc. (Kobe) 08-176
# Experimental: (§1) A test compound was dissolved in DMSO to obtain a 10 mM test compound solution, which was stored in a dark place at −20° C. until measurement. When bioactivity (kinase activity) is measured, a test compound solution is diluted with DMSO so that the concentration becomes 100 times higher than […], and then diluted 25 times (DMSO concentration is 4%) with an assay buffer described hereinafter.
# Products manufactured by Carna Biosciences Inc. (Kobe) used as protein kinases (recombinant human kinases) in the test are as follows:
# SYK (product number: 08-176), JAK3 (product number: 08-046), FLT3 (product number: 08-154), PDGFRα (PDGFRA) (product number: 08-157), TRKA (NTRK1) (product number: 08-186), KDR (product number: 08-191), CDK2/cycA (product number: 04-103), and AurA (AURKA) (product number: 05-101).
# (§2) Kinase activity was measured by a mobility shift assay (MSA) method using QuickScout Screening Assist™ MSA (commercially available kit, manufactured by Carna Biosciences Inc.)
# 5 μl of a test compound solution (the concentration is 4 times of the final concentration) dissolved or suspended in an assay buffer [20 mM HEPES, 0.01% Triton™ X-100, 1 mM dithiothreitol, pH 7.5] or 5 μl of a solvent (4% DMSO-assay buffer) was charged in a 384 well plate made of polypropylene (product number 781280, manufactured by Greiner Bio-One Co., Ltd.). Then, 5 μl of ATP/substrate/metal solution of QuickScout Screening Assist MSA was added. Furthermore, 10 μl of a kinase solution diluted with assay buffer was added and the reaction was initiated. However, only assay buffer (10 μl) was added to blank. The concentration of kinase and reaction conditions were controlled in accordance with the protocol of QuickScout Screening Assist MSA. Then, the reaction was terminated by adding 60 μl of termination buffer of QuickScout Screening Assist MSA and the amount of a substrate (S) and a phosphorylated substrate (P) in the reaction solution were determined in accordance with the protocol of QuickScout Screening Assist MSA using LabChip3000 (manufactured by Caliper Life Sciences Co., MA, USA), and also inhibition of the test compound at a concentration of 0.01, 0.1 and 1 μM was measured, respectively. The amounts of S and P were expressed by the height of each separated peak. Inhibition (%) of the test compound was calculated in accordance with the following equation:
# Inhibition (%)=(1−(C−A)/(B−A))×100
# where A denotes blank, B denotes a solvent and C denotes P/(P+S) of a well of the compound.
# AurA kinase = target: T2, AurA kinase (Homo sapiens, UniProt O14965); assay: Kinase activity, mobility shift assay (MSA), AurA; assay type: biochemical; conditions: read-out: inhibitory activity against AurA kinase
# T2 construct: purchased Carna Biosciences Inc. (Kobe) 05-101
# T2 sequence (O14965 1-403): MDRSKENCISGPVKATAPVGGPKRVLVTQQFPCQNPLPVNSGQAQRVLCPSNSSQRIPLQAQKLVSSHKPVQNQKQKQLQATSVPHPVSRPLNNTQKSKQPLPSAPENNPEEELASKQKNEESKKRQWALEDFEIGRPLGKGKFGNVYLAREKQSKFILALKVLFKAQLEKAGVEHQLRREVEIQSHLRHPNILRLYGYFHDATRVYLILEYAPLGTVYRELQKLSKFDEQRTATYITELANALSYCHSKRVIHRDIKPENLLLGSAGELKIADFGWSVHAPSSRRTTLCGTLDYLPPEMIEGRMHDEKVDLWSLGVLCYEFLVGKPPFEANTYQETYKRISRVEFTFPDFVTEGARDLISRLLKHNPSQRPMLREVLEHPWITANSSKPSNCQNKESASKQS
# Experimental: as §1
# (§3) Products manufactured by Carna Biosciences Inc. (Kobe) used as protein kinases (recombinant human kinases) in the test are as follows: […]
# as §2
# (§4) 5 μl of a test compound solution (the concentration is 4 times of the final concentration) dissolved or suspended in an assay buffer [20 mM HEPES, 0.01% Triton™ X-100, 1 mM dithiothreitol, pH 7.5] or 5 μl of a solvent (4% DMSO-assay buffer) was charged in a 384 well plate made of polypropylene (product number 781280, manufactured by Greiner Bio-One Co., Ltd.). […] Inhibition (%) of the test compound was calculated in accordance with the following equation: […]
# JAK2 = JAK2 (Homo sapiens, UniProt O60674); assay: Kinase activity, mobility shift assay (MSA), JAK2; assay type: biochemical; conditions: read-out: inhibitory activity against JAK2 kinase
# JAK3 = target: T3, JAK3 (Homo sapiens, UniProt P52333); assay: Kinase activity, mobility shift assay (MSA), JAK3; assay type: biochemical; conditions: read-out: inhibitory activity against JAK3 kinase
# T3 construct: purchased Carna Biosciences Inc. (Kobe) 08-046
# T3 sequence (P52333 1-1124): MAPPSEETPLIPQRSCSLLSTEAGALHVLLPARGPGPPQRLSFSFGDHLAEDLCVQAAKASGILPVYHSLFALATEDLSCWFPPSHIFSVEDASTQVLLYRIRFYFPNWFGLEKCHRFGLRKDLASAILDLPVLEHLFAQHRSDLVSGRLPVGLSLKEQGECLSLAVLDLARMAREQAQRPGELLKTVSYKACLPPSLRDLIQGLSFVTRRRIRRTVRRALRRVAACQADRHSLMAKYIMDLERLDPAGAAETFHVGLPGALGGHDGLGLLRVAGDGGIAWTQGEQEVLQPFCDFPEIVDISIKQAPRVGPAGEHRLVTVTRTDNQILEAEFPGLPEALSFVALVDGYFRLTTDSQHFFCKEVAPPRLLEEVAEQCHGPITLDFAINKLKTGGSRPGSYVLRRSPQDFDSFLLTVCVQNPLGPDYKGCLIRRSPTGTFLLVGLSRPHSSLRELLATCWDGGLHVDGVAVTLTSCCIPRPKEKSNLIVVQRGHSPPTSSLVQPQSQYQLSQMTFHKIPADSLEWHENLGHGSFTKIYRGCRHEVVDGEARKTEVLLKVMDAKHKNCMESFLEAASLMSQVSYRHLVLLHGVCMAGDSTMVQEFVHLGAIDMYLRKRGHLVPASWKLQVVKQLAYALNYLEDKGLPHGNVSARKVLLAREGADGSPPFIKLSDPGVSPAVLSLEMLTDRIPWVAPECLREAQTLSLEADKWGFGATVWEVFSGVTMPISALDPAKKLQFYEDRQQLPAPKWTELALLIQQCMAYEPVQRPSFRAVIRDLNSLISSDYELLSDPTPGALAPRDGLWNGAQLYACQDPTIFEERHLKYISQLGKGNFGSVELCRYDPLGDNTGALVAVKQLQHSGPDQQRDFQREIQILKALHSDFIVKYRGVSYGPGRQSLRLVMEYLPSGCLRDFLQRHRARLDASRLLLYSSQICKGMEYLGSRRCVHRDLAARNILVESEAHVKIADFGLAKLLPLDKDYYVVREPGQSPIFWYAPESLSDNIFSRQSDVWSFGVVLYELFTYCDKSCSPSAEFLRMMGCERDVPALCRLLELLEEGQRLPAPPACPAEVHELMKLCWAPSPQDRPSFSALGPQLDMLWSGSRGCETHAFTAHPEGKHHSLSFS
# Experimental: as §1, §3, §2, §4
# Sequence of JAK2 (O60674 whole entry): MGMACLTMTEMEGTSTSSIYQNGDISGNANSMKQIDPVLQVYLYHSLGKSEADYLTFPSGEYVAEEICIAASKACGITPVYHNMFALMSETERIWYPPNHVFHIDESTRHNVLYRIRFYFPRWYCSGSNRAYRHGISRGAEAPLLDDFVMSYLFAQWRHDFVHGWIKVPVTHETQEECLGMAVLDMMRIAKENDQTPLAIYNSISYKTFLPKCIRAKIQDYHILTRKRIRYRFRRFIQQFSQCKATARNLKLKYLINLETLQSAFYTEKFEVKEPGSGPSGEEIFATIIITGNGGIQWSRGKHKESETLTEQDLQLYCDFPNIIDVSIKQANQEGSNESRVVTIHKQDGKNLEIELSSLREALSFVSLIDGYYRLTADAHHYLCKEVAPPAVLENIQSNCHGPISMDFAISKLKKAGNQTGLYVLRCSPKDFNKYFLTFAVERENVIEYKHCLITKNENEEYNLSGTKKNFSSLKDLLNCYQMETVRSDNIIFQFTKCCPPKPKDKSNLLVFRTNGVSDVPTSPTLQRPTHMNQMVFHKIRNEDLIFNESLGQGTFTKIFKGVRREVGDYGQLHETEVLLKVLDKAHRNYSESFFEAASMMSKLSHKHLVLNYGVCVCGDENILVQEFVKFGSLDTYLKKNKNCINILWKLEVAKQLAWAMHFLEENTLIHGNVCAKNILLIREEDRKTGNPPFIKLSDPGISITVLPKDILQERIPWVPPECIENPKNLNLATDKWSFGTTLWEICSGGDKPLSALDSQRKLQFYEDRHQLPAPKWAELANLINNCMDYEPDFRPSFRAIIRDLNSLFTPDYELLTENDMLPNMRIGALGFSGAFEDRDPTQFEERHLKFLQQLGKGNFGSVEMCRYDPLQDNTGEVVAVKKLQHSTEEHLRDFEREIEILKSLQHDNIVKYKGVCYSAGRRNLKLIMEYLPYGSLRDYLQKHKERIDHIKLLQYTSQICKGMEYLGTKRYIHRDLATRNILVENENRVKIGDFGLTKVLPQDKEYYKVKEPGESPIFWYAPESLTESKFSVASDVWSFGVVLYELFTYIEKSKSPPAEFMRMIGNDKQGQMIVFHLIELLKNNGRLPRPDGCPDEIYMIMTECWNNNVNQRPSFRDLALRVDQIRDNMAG
Structure (SMILES),inhibition at 0.05 µM [1] [%],inhibition at 0.1 µM (Syk kinase) [%],inhibition at 0.1 µM (AurA kinase) [%],inhibition at 0.1 µM (JAK2) [%],inhibition at 0.1 µM (JAK3) [%]
"Cc1cccc2cnc(Nc3cc(O)c4cn[nH]c4c3)nc12 [Example 82, 8-methyl-N-(4-hydroxy-1H-indazol-6-yl)quinazoline-2-amine]",≥ 50,≥ 50,,,
"Cc1cccc2cnc(Nc3ccc4cc[nH]c4c3)nc12 [Example 5, N-(1H-indol-6-yl)-8-methylquinazoline-2-amine]",,,≥ 50,,
"Cc1nc2c(N)cc(Nc3ncc4cccc(C)c4n3)cc2[nH]1 [Example 88, 8-methyl-N-(2-methyl-4-amino-1H-benzo[d]imidazol-6-yl)quinazoline-2-amine]",≥ 50,≥ 50,,,
COc1ccc(Nc2ncc3cccc(C)c3n2)cc1OC [Example 30],,,,≥ 50,≥ 50
